In this series the target is T1, sGC (Homo sapiens, UniProt Q02108+Q02153).
T1 construct: expressed in transfected cells; host or cells: CHO-K1 (clone #7, CHO-K1/sGC)
T1 sequence (Q02108 1-690): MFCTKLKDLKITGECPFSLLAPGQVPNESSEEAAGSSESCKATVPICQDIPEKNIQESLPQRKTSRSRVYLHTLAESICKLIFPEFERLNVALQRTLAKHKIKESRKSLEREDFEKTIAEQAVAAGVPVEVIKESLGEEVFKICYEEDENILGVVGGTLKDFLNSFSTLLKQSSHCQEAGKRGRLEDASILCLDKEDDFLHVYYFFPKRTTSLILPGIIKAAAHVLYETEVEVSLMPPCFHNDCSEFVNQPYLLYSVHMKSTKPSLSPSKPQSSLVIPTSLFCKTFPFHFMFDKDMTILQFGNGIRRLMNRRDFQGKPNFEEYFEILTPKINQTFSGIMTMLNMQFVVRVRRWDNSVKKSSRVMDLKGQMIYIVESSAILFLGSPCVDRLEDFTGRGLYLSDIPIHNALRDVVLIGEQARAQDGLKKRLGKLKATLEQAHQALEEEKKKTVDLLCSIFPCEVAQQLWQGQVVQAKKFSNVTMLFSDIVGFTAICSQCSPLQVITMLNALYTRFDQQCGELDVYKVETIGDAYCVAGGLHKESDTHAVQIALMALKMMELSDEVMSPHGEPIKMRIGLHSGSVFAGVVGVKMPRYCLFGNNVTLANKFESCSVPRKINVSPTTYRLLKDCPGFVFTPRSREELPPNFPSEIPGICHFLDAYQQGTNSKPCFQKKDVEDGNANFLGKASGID
T1 sequence (Q02153 1-619): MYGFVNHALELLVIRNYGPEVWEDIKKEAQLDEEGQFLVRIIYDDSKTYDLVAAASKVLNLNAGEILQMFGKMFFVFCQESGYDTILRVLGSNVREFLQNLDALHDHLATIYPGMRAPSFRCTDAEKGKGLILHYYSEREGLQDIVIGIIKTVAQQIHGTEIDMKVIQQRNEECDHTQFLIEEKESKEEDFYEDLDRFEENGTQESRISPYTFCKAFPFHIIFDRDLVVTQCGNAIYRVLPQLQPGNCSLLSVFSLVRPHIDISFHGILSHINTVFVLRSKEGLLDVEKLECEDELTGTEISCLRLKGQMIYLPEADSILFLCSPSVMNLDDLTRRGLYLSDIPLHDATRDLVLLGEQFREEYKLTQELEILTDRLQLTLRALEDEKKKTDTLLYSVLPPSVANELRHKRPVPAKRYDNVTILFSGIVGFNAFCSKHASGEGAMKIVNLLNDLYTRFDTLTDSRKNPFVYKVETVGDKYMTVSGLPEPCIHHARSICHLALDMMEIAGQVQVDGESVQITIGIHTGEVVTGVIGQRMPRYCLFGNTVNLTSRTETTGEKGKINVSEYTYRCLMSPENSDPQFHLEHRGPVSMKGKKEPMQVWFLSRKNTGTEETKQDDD
Kind of series: Cell-based sGC Functional Assay (CASA Assay), cGMP generation in CHO-K1/sGC cells. The note with it: without ODQ incubation; for EC50: read-out: inflection points (IP). The source says:
Cell-based sGC Functional Assay (CASA Assay)
sGC is a heme-containing enzyme that converts GTP to secondary messenger cGMP. Increases in cGMP levels affect several physiological processes including vasorelaxation through multiple downstream pathways. […] Heme-dependent activators (HDAs) preferentially activate sGC containing a ferrous heme group. To determine the effect of sGC activators on enzyme activity, the CASA assay was developed to monitor the generation of cGMP in a cell line that stably expresses the heterodimeric sGC protein.
A CHO-K1 cell line stably expressing the sGC a up heterodimer was generated using a standard transfection protocol. CHO-K1 cells were transfected with plasmids pIREShyghsGCα1 and pIRESneo-hsGCβ1 simultaneously using FUGENE reagent. Clones that stably express both subunits were selected with hygromycin and neomycin for weeks. Clone #7 was chosen for the assay and was designated CHO-K1/sGC. CHO-K1/sGC cells were maintained in F-K12 medium containing 10% heat-inactivated Fetal Bovine Serum (FBS), 100 μg/mL penicillin/streptomycin, 0.5 mg/mL hygromycin and 0.25 mg/mL G418. On the day of the assay, cells were harvested in EBSS Assay Buffer (EAB) containing 5 mM MgCl2, 10 mM HEPES (4-(2-hydroxyethyppiperazine-1-ethanesulfonic acid) and 0.05% BSA (bovine serum albumin) and cell density was adjusted to 2×10^6/mL with EAB. IBMX (3-isobutyl-1-methylxanthin, 0.5 mM) was added to inhibit degradation of cGMP. Compounds were diluted from DMSO stock solutions and added to the assay at a final DMSO concentration of 1%. Cells were incubated with compounds in the presence and absence of 10 μM of 1H-(1,2,4)oxadiazolo(4,3-a) quinoxalin-1-one (ODQ) for 1 hr at 37° C. At the end of the incubation period, the reaction was terminated and the cells were lysed. The level of intracellular cGMP was determined using an HTRF-based assay kit (CisBio, 62GM2PEC), which detects the displacement of a fluorescence labeled cGMP from its specific antibody. The amount of cGMP was plotted against compound concentration in PRISM software and the IP and maximum fold induction over DMSO control were derived from the plot.

`CC1(c2ccccc2)C(=O)Nc2nc(-c3nn(CCC(F)(F)C(F)(F)F)c4cc(F)ccc34)nc(N)c21` (stereo not drawn) [Example 70, 4-amino-2-[6-fluoro-1-(3,3,4,4,4-pentafluorobutyl)-1H-indazol-3-yl]-5-methyl-5-phenyl-5,7-dihydro-6H-pyrrolo[2,3-d]pyrimidin-6-one]: the “Maximum fold induction over DMSO control” value is on record as 126 and the EC50 was determined as 46 nM.

Regarding `CC1(c2ccc(F)cc2)C(=O)Nc2nc(-c3nc(CCC(F)(F)C(F)(F)F)n4cc(Cl)ccc34)nc(N)c21` (stereo not drawn) [Example 105, 4-Amino-2-[6-Chloro-3-(3,3,4,4,4-Pentafluorobutyl)Imidazo[1,5-A]Pyridin-1-yl]-5-(4-Fluorophenyl)-5-Methyl-5,7-Dihydro-6H-Pyrrolo[2,3-D]Pyrimidin-6-One], the “Maximum fold induction over DMSO control” value came out at 150 and the EC50 worked out at 258 nM.

For `CC1(c2ccccc2)C(=O)Nc2nc(-c3nc(CCC(F)(F)C(F)(F)F)n4cc(Cl)ccc34)nc(N)c21` (stereo not drawn) [Example 136, 4-amino-2-[6-chloro-3-(3,3,4,4,4-pentafluorobutyl)imidazo[1,5-a]pyridin-1-yl]-5-methyl-5-phenyl-5,7-dihydro-6H-pyrrolo[2,3-d]pyrimidin-6-one], the “Maximum fold induction over DMSO control” value is listed as 52 and the EC50 was 139 nM.

The record behind these values is patent US9365574B2, “Soluble guanylate cyclase activators” (Merck Sharp & Dohme Corp., priority 2010, dated 2016).
